#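 A five-concentration, 48-hour dose response in 96-well plates underlies each endpoint, interpolated linearly between surrounding concentrations. TGI marks complete inhibition of growth.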
# Key:
# Assay in all cases: NCI anticancer screen, dose series, 48 h
# HCT-15 colon = tested on: HCT-15 colon
# MOLT-4 leukemia = tested on: MOLT-4 leukemia
# NCI-H522 lung = tested on: NCI-H522 lung
# COLO 205 colon = tested on: COLO 205 colon
# SNB-19 CNS = tested on: SNB-19 CNS
# MALME-3M melanoma = tested on: MALME-3M melanoma
# NCI-H460 lung = tested on: NCI-H460 lung
# ACHN renal = tested on: ACHN renal
# A498 renal = tested on: A498 renal
# MCF7 breast = tested on: MCF7 breast
# MDA-MB-435 = tested on: MDA-MB-435
Structure (SMILES),TGI (HCT-15 colon),TGI (MOLT-4 leukemia),TGI (NCI-H522 lung),TGI (COLO 205 colon),TGI (SNB-19 CNS),TGI (MALME-3M melanoma),TGI (NCI-H460 lung),TGI (ACHN renal),TGI (A498 renal),TGI (MCF7 breast),TGI (MDA-MB-435)
O=C(O)CCCc1nc2c(n1Cc1ccccc1)C(=O)c1ccccc1C2=O,> 100 µM,> 100 µM,> 100 µM,> 100 µM,> 100 µM,47 µM,> 100 µM,> 100 µM,> 100 µM,> 100 µM,
NC(N)=NCCN1CC2CCC(CC2)C1,> 100 µM,> 100 µM,> 100 µM,> 100 µM,> 100 µM,> 100 µM,> 100 µM,> 100 µM,> 100 µM,,> 100 µM
CCN(CC)Cc1ccc(C(=S)Nc2ccc(Cl)cc2)s1,23 µM,34.4 µM,25 µM,5.2 µM,31.6 µM,,27.9 µM,28.3 µM,25.8 µM,25.5 µM,22.7 µM
CO/N=C(\C(=O)OC(=NC1CCCCC1)NC1CCCCC1)c1csc(NC(c2ccccc2)(c2ccccc2)c2ccccc2)n1,> 10 µM,> 10 µM,> 10 µM,> 10 µM,> 10 µM,> 10 µM,> 10 µM,> 10 µM,> 10 µM,> 10 µM,
N#Cc1n[nH]n(-c2ccc(Br)cc2)c1=O,> 100 µM,,> 100 µM,> 100 µM,> 100 µM,> 100 µM,,> 100 µM,> 100 µM,> 100 µM,> 100 µM
COC(=O)/C=C(\C(=O)OC)C1C(=O)Oc2c(C)c(=O)c3ccccc3n21 (stereo not given),> 100 µM,> 100 µM,> 100 µM,> 100 µM,> 100 µM,> 100 µM,> 100 µM,,,> 100 µM,> 100 µM
O=c1oc2ccccc2cc1-c1cc2ccccn2c1,> 100 µM,> 100 µM,> 100 µM,> 100 µM,> 100 µM,,> 100 µM,> 100 µM,> 100 µM,> 100 µM,> 100 µM
O=C1C2SC34c5c2c2ccccc2n5CCC3CCCN14 (stereo not given),> 100 µM,> 100 µM,> 100 µM,> 100 µM,> 100 µM,> 100 µM,,> 100 µM,> 100 µM,> 100 µM,> 100 µM
N=C(N)C1CN(CCc2c[nH]c3ccccc23)C(=O)NC1=O (stereo not given),> 100 µM,> 100 µM,,> 100 µM,> 100 µM,> 100 µM,> 100 µM,> 100 µM,> 100 µM,> 100 µM,> 100 µM
[N-]=[N+]=NC1(Cc2ccccc2)C(=O)c2cccc3c2N(CCC3)C1=O (stereo not given),> 100 µM,> 100 µM,> 100 µM,> 100 µM,,> 100 µM,> 100 µM,> 100 µM,,,
COc1cc(C2C3C=CC=C4CC=CC(=C43)C3CCC(=O)N32)cc(OC)c1OC (stereo not given),> 100 µM,> 100 µM,> 100 µM,,> 100 µM,,> 100 µM,> 100 µM,> 100 µM,> 100 µM,> 100 µM
CC1(C)[C@@H](Cn2ccc(=O)[nH]c2=O)CC[C@@]1(C)CO,> 100 µM,,,> 100 µM,> 100 µM,,,> 100 µM,> 100 µM,,> 100 µM
CC(=O)OC(OC(C)=O)c1ccc2ccc3cccc4ccc1c2c34,> 100 µM,> 100 µM,,58.4 µM,98.7 µM,54.7 µM,39.6 µM,65.8 µM,3.74 µM,79.1 µM,37.9 µM
COC(=O)c1c(O)ccc2c1c1c(n2Cc2cc(OC)cc(OC)c2)C(=O)c2ccccc2C1,> 100 µM,> 100 µM,,26 µM,> 100 µM,> 100 µM,> 100 µM,,> 100 µM,> 100 µM,61.7 µM
CC(=O)Nc1sc(Br)cc1S(=O)(=O)c1ccc(Cl)cc1,,> 100 µM,47.6 µM,,> 100 µM,> 100 µM,> 100 µM,> 100 µM,> 100 µM,47.3 µM,> 100 µM
CN=C(n1ccnc1)n1ccnc1,> 100 µM,> 100 µM,> 100 µM,> 100 µM,> 100 µM,> 100 µM,> 100 µM,,> 100 µM,> 100 µM,> 100 µM
CCCC(=O)NC(NC1CCCCC1)(C(=O)OCC)C(F)(F)F (stereo not given),> 100 µM,> 100 µM,> 100 µM,,> 100 µM,> 100 µM,> 100 µM,> 100 µM,,> 100 µM,> 100 µM
c1ccc(N=C(N2CCCC2)N(CCN2CCCC2)c2ccccc2)cc1,> 100 µM,> 100 µM,> 100 µM,75.4 µM,> 100 µM,> 100 µM,75.8 µM,> 100 µM,,> 100 µM,> 100 µM
CN1CCc2c([nH]c3ccccc23)C1,> 100 µM,> 100 µM,> 100 µM,> 100 µM,> 100 µM,86.8 µM,> 100 µM,> 100 µM,,> 100 µM,> 100 µM
Cc1ccc(/C=N/Nc2cc(C)c3cccc(C)c3n2)s1,17.4 µM,47.7 µM,16.9 µM,28.7 µM,> 100 µM,33.1 µM,,68.5 µM,,18 µM,37.2 µM
CC1(C)/C(=N\NC(N)=O)C2CCC1C2 (stereo not given),> 100 µM,> 100 µM,> 100 µM,> 100 µM,> 100 µM,> 100 µM,> 100 µM,> 100 µM,,> 100 µM,> 100 µM
O=[N+]([O-])c1ccc(CN(CCCl)OCCCl)cc1,> 100 µM,> 100 µM,> 100 µM,> 100 µM,> 100 µM,> 100 µM,> 100 µM,> 100 µM,,> 100 µM,> 100 µM
CC1CC(OP(=O)(OCc2ccccc2)OCc2ccccc2)[C@@H](OCc2ccccc2)C(OCc2ccccc2)C1OCc1ccccc1 (stereo not given in full),> 100 µM,> 100 µM,> 100 µM,> 100 µM,> 100 µM,> 100 µM,> 100 µM,> 100 µM,,> 100 µM,
